Experimental data from patent US20220226343A1, “3-AMINO-4-[4-[4 (DIMETHYLCARBAMOYL) PHENYL]-1,4-DIAZEPAN-1-YL]THIENO[2,3-B]PYRIDINE-2-CARBOXAMIDE FOR USE IN CANCER THERAPY AND FORMULATIONS COMPRISING THE SAME” (University of South Carolina, priority 2019, published 2022).

Assays:
MYC-CAP-CR cells [1] = assay: Short-term cell proliferation assay, MYC-CAP-CR; format: cell-based, murine; settings: androgen-containing media
Description: (§1) MYC-CaP-CR cells (Ellis L. et al., 2012. Prostate 72(6):587-591) were selected for castration resistance from genetically engineered MYC-CaP cells that express MYC from an AR-responsive promoter (Watson P A, et al., 2005. Cancer Res 65(24):11565-11571). Castration resistance in these cells is associated with the overexpression of full-length AR rather than an AR variant, such as AR-V7 in 22rv1 (Olson B M, et al., 2017. Cancer immunology research 5(12):1074-1085).

MYC-CaP-CR tumors = MYC-CaP-CR tumors subcutaneous in intact FVB male mice; format: in vivo, mouse
Description: as §1

MYC-CAP-CR cells [2] = assay: Long-term clonogenic assay, MYC-CaP-CR; format: cell-based, murine; settings: 1 μM Senexin B, 1 μM 15u, 5 μM enzalutamide
Description: as §1

[3] = tested on: PSA expression in CRPC cell line C4-2; assay: PSA expression in cell culture supernatant of C4-2 cells; format: cell-based; settings: C4-2 culture supernatant, 4-day treatment, FBS-supplemented regular media
Description: CDK8/19 inhibition decreases the expression of certain androgen-receptor (AR) inducible genes including PSA, the most common marker of prostate cancer, and the growth of castration-refractory prostate cancers (CRPC).

[4] = tested on: 4T1 murine TNBC lung metastasis; assay: 4T1 breast cancer metastasis survival after primary tumor removal; format: in vivo, mouse; settings: Senexin B medicated food (350 ppm) plus one oral dose 50 mg/kg
Procedure: 4T1 is a murine triple-negative breast cancer (TNBC) cell line, which is highly metastatic to the lungs. […] Parental and CDK8-knockdown 4T1 cells (n=10) were injected orthotopically in the mammary fat pad and the primary tumors were removed 17 days later. Following surgery, all the mice eventually died with lung metastases. […] However, the loss of CDK8 was associated with a strong increase in the survival of mice (FIG. 10C). […]

[5] = tested on: CRPC cell line 22rv1 xenograft; settings: Senexin B 133 mg/kg once a day or 66 mg/kg twice a day (FIG. 8D)
FLT3(ITD, F691L) = assay: KINOMEscan scanMAX; format: binding; settings: 2000 nM
Description: (§2) Nat. Biotechnol. 23, 329-336 (2005).
(§3) Percent Control (% Ctrl).
(§4) % Ctrl=100×(TS−CPOS)/(CNEG−CPOS) (eqn 1)

FLT3(ITD) = assay: KINOMEscan scanMAX; format: binding; settings: 2000 nM
Description: as §2, §3, §4

PKNB(M. tuberculosis) = target: T1, PKNB(M. tuberculosis) (Mycobacterium tuberculosis, UniProt P9WI81); assay: KINOMEscan scanMAX; format: binding; settings: 2000 nM
T1 construct: purchased DiscoveRx (KINOMEscan scanMAX panel)
T1 sequence (P9WI81 whole entry): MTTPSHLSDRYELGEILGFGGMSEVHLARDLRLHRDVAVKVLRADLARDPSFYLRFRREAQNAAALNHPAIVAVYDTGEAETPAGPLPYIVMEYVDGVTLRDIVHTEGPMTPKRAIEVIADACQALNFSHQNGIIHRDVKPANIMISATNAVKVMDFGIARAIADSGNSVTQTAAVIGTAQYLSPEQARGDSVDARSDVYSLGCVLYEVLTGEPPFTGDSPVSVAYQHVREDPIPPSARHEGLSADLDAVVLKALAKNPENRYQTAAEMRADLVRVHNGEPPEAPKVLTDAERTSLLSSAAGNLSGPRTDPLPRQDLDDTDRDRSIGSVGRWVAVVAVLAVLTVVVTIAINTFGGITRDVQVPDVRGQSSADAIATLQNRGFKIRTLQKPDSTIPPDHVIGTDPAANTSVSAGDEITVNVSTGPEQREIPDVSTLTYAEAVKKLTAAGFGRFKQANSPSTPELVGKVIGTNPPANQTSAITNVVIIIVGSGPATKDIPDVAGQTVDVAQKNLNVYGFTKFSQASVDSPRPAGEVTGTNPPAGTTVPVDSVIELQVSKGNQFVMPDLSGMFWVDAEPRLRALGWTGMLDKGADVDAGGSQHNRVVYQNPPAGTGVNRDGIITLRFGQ
Description: as §2, §3, §4

PFPK5(P. falciparum) = target: T2, PFPK5(P. falciparum) (Plasmodium falciparum, UniProt P61075); assay: KINOMEscan scanMAX; format: binding; settings: 2000 nM
T2 construct: purchased KINOMEscan (DiscoveRx) scanMAX panel
T2 sequence (P61075 whole entry): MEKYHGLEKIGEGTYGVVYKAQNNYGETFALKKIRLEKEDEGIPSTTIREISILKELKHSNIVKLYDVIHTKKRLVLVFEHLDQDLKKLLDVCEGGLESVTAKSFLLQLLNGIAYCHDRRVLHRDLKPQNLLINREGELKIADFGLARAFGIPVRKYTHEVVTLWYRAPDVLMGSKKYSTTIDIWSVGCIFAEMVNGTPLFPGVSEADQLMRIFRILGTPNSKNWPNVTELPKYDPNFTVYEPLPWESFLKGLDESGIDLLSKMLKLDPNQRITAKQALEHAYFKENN
Description: as §2, §3, §4

FLT3(ITD, D835V) = assay: KINOMEscan scanMAX; format: binding; settings: 2000 nM
Description: as §2, §3, §4

PFCDPK1(P. falciparum) = target: T3, PFCDPK1(P. falciparum) (Plasmodium falciparum, UniProt P62344); assay: KINOMEscan scanMAX; format: binding; settings: 2000 nM
T3 construct: DNA label (qPCR read-out); purchased DiscoveRx (KINOMEscan scanMAX)
T3 sequence (P62344 whole entry): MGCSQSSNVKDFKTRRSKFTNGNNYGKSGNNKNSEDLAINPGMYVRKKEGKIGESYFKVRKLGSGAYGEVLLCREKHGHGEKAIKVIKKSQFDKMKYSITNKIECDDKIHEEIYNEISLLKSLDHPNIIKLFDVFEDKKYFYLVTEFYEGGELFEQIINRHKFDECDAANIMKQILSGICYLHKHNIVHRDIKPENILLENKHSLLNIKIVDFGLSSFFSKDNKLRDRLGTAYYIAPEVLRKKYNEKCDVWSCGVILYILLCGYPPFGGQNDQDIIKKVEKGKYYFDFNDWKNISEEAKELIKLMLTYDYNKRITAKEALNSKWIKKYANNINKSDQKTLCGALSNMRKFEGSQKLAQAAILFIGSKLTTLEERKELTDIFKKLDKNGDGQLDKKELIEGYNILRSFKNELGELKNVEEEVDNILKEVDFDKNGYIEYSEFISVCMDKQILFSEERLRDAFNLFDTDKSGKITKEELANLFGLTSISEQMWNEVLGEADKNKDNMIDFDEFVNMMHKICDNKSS
Description: as §2, §3, §4

CDC2L5 = target: T4, CDC2L5 (Homo sapiens, UniProt Q14004); assay: KINOMEscan scanMAX; format: binding; settings: CDC2L5, 2000 nM
T4 construct: purchased DiscoverX (KINOMEscan scanMAX service)
T4 sequence (Q14004 whole entry): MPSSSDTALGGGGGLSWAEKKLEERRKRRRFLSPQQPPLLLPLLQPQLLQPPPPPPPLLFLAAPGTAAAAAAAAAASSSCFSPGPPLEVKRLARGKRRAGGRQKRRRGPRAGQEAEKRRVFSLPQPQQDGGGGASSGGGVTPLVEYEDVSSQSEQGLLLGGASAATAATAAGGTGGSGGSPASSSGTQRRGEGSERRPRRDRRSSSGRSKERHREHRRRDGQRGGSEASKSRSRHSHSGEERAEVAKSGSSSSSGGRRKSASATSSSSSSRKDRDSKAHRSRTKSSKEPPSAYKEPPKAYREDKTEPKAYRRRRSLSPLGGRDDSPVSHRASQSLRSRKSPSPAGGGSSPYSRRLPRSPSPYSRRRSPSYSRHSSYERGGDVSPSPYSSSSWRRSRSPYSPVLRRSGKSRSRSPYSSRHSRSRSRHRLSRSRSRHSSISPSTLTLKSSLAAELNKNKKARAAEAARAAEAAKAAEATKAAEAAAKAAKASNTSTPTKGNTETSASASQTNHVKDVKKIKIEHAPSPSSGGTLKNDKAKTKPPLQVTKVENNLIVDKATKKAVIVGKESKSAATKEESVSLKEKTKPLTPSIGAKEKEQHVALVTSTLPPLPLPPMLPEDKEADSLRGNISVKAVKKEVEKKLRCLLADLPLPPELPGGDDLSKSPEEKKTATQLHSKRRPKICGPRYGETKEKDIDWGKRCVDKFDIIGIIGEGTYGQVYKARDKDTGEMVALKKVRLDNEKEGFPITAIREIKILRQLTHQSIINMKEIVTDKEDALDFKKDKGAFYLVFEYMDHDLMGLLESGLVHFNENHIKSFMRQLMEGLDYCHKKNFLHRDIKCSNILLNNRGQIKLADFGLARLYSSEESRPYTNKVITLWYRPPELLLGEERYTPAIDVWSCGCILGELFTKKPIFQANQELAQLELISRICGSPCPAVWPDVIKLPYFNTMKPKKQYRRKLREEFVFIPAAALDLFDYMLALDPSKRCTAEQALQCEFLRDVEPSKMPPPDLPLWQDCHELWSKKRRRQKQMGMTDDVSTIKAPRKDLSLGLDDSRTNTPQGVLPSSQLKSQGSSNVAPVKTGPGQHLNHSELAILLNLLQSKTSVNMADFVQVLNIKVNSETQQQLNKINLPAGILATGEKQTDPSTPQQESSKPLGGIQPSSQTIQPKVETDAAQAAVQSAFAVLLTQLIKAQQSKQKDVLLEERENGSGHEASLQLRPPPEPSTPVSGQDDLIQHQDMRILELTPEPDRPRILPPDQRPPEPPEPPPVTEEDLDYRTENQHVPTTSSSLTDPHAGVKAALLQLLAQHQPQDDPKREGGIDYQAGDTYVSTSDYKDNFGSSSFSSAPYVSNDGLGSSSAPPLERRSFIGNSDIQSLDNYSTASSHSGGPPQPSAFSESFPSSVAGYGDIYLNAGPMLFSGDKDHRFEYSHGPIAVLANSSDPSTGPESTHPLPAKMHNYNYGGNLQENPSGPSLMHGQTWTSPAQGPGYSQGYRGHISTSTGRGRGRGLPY
Description: as §2, §3, §4

PRP4 = target: T5, PRP4 (Homo sapiens, UniProt Q13523); assay: KINOMEscan scanMAX; format: binding; settings: PRP4, 2000 nM
T5 construct: DNA label (qPCR read-out); purchased DiscoverX (KINOMEscan)
T5 sequence (Q13523 whole entry): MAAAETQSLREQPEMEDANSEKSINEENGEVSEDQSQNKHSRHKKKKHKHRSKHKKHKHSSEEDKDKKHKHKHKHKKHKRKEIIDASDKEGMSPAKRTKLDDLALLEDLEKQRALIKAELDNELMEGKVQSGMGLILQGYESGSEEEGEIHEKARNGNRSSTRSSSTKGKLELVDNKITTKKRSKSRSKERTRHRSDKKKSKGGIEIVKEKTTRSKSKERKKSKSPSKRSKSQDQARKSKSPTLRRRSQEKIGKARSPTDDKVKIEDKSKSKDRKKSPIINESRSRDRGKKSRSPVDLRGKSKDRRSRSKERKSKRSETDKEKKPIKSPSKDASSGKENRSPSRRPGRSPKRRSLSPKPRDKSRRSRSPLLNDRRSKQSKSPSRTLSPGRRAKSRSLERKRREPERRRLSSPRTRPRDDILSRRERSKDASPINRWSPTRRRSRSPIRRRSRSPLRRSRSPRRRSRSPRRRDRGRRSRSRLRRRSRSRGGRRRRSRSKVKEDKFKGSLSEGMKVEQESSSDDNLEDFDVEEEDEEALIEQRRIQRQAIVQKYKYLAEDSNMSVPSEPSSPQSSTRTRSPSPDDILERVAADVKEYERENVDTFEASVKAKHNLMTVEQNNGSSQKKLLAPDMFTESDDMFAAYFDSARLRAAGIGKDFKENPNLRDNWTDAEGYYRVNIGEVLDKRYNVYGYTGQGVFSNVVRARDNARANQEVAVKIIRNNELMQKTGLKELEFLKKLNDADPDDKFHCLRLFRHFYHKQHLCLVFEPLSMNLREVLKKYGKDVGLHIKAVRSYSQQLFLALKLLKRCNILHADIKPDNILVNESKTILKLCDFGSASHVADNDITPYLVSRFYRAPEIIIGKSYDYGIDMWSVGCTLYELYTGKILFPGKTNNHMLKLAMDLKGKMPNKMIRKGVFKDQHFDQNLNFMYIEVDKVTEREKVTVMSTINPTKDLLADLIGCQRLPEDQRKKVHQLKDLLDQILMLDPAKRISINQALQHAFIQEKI
Description: as §2, §3, §4

in vivo = settings: female, CD-1, mouse, serum, po, 30 mg/kg
[6] = Oral PK of 15u and 15u_D6, female CD-1 mice; settings: 30 mg/kg, AUC within the first eight hours
CDK8/19 = assay: NFκB reporter assay in parental 293 reporter cells; format: cell-based; settings: NFκB Activity Assay as described in Example 1; read-out: Inhibition Potency HEK293-NFkB-Luc Assay
Description: We have used a cell-based assay to measure the inhibition of CDK8/19 activity by thienopyridine derivatives. This assay, based on the role of CDK8/19 in NFκB-driven transcription (Chen, 2017), measures the effects of CDK8/19 on the expression of firefly luciferase reporter from a NFκB-dependent promoter in 293 cells. Lentiviral vector pHAGE-NFKB-TA-LUC-UBC-dTomato-W (Addgene #49335) was introduced into 293 cells and a clonal cell line showing the strongest induction of luciferase expression upon TNFα treatment was established and used as the reporter cell line. As a control for CDK8/19 dependence of NFκB inhibition, we have also introduced the same reporter construct into 293 cells with CRISPR/CAS9 knockout of both CDK8 and CDK19.
FIG. 2C and Table 1 compares the IC50 values for different thienopyridines measured in the NFκB reporter assay in parental 293-derived reporter cell line to the cell-based activity values measured for the same compounds by Saito (2013) based on their effect on alkaline phosphatase (ALPase), an indicator of differentiation to osteoblasts in the mouse bone marrow stromal cell line ST2. The latter effects are expressed as EC200, a concentration that enhances ALPase activity to 200% of control.

SMILES: CNC(=O)c1ccc(N2C(=S)N(c3ccc(C#N)c(C(F)(F)F)c3)C(=O)C2(C)C)cc1F [enzalutamide]
- MYC-CAP-CR cell growth (MYC-CAP-CR cells [1]): paradoxically stimulated the growth
- MYC-CaP-CR tumor volume and weight (MYC-CaP-CR tumors): modest effect
- MYC-CaP-CR colony formation (MYC-CAP-CR cells [2]): decreased MYC-CaP-CR colony formation

SMILES: CN1CCN(C(=O)c2ccc3cc(CCNc4ncnc5ccc(C#N)cc45)ccc3c2)CC1 [Senexin B, reference compound]
- MYC-CAP-CR cell growth (MYC-CAP-CR cells [1]): little effect
- IC50 [3]: 0.255 µM
- survival after removal of the primary 4T1 tumor [4]: statistically significant but moderate increase in survival
- 22rv1 growth in castrated mice [5]: significantly inhibited 22rv1 growth
- MYC-CaP-CR colony formation (MYC-CAP-CR cells [2]): decreased MYC-CaP-CR colony formation

SMILES: [2H]C([2H])([2H])N(C(=O)c1ccc(N2CCCN(c3ccnc4sc(C(N)=O)c(N)c34)CC2)cc1)C([2H])([2H])[2H] [Compound 15u_D6, 3-amino-4-(4-(4-(bis(methyl-d3)carbamoyl)phenyl)-1,4-diazepan-1-yl)thieno[2,3-b]pyridine-2-carboxamide]
- % Ctrl (FLT3(ITD, F691L)): 75 % Ctrl
- % Ctrl (FLT3(ITD)): 72 % Ctrl
- % Ctrl (PKNB(M. tuberculosis)): 90 % Ctrl
- % Ctrl (PFPK5(P. falciparum)): 67 % Ctrl
- % Ctrl (FLT3(ITD, D835V)): 34 % Ctrl
- % Ctrl (PFCDPK1(P. falciparum)): 61 % Ctrl
- % Ctrl (CDC2L5): 80 % Ctrl
- % Ctrl (PRP4): 88 % Ctrl
- AUC(0-t) (in vivo): 7.4 µg·h/mL
- PK of the D6 derivative compared with 15u [6]: slightly improved the PK
- IC50 (CDK8/19): 0.0077 µM
